# Test results published in US12227488B2, “Small molecule degraders of Helios and methods of use” (DANA-FARBER CANCER INSTITUTE, INC., priority 2018, dated 2025).
# How the values were obtained:
# [1] = target: T1, CRBN and Helios (IKZF2) (Homo sapiens, UniProt Q96SW2+Q9UKS7); assay: TR-FRET dimerization assay (CRBN-IKZF2 ternary complex formation); type: binding; conditions: n=1
# T1 construct: His (N); Strep (N)
# Procedure, shortened: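 Compound-induced IKZF2 recruitment to CRBN was read as the 520/490 nm TR-FRET ratio after 15 min at rt. The mix held biotinylated IKZF2, BODIPY-labeled CRBN bound to DDB1 lacking the BPB propeller, tracer Tb-streptavidin and compound titrations; n=1, from ≥3 technical replicates per well.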
# [2] = system: IKZF2; assay: Cellular degradation assay, eGFP-IKZF2Δ fusion with mCherry reporter in Flp-In 293 cells; type: cell-based; conditions: for IKZF2 GFP/RFP Relative Abundance: 5 h incubation, n=1; for DC50: half degradation at 5 h (DC50,5 h), triplicate, 11 point dose response
# Procedure, shortened: (§1)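 DC50,5 h derived by variable-slope nonlinear fit of the per-well ratio of GFP-positive to mCherry-positive cells, imaged after 5 h compound exposure at 0.5% DMSO.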
# [3] = target: T2, IKZF1 (Homo sapiens, UniProt Q13422); assay: Cellular degradation assay, eGFP-IKZF1Δ fusion with mCherry reporter in Flp-In 293 cells; type: cell-based; conditions: for IKZF1 GFP/RFP Relative Abundance: 5 h incubation, n=1; for DC50: half degradation at 5 h (DC50,5 h), triplicate, 11 point dose response
# T2 construct: expressed in transfected cells; host or cells: Flp-In 293
# Procedure, shortened: as §1
# [4] = target: GSPT1 (Homo sapiens, UniProt P15170+Q96SW2); assay: Cellular degradation assay, eGFP-GSPT1 fusion with mCherry reporter in Flp-In 293 cells; type: cell-based; set-up: expressed in transfected cells; host or cells: Flp-In 293; conditions: for GSPT1 GFP/RFP Relative Abundance: 5 h incubation, n=1; for DC50: half degradation at 5 h (DC50,5 h), triplicate, 11 point dose response
# Description: IKZF1Δ, IKZF2Δ, GSPT1 and SALL4 ZnF1-2 were subcloned into mammalian pcDNA5/FRT Vector (Ampicillin and Hygromycin B resistant) modified to contain MCS-eGFP-P2A-mCherry. […] Following 2-3 passage cycle, FACS (FACSAria™ II, BD) was used to enrich for cells expressing eGFP and mCherry. Cells stably expressing the IKZF1Δ, IKZF2Δ, GSPT1 or SALL4 Znf1-2 GFP fusions with mCherry reporter were seeded at 30-50% confluency in 384-well plates with 50 μL FluoroBrite™ DMEM media (Thermo Fisher Scientific, A18967) containing 10% FBS per well a day before compound treatment. Compound titrations were dispensed using a D300e Digital Dispenser (HP), normalized to 0.5% DMSO, and incubated with cells for 5 hours.
# The resulting images were analyzed using CellProfiler™. A series of image analysis steps (‘image analysis pipeline’) was constructed. First, the red and green channels were aligned and cropped to target the middle of each well (to avoid analysis of heavily clumped cells at the edges), and a background illumination function was calculated for both red and green channels of each well individually and subtracted to correct for illumination variations across the 384-well plate from various sources of error. An additional step was then applied to the green channel to suppress the analysis of large auto fluorescent artifacts and enhance the analysis of cell specific fluorescence by way of selecting for objects under a given size, 30 A.U., and with a given shape, speckles. mCherry-positive cells were then identified in the red channel filtering for objects between 8-60 pixels in diameter and using intensity to distinguish between clumped objects. The green channel was then segmented into GFP positive and negative areas and objects were labeled as GFP positive if at least 40% of it overlapped with a GFP positive area. The fraction of GFP-positive cells/mCherry-positive cells in each well was then calculated, and the green and red images were rescaled for visualization.
# The degradation assay was performed as described above. […] Degradation was measured after 5 h of compound treatment and the concentrations that lead to half degradation at 5 h (DC50,5 h) were calculated using the nonlinear fit variable slope model (GraphPad Software).
# [5] = compound concentration 6.6667E−05
# [6] = compound concentration 6.6667E−06
# [7] = compound concentration 6.6667E−07 (667 nM)
# [8] = compound concentration 2.00E−05
# [9] = compound concentration 2.00E−06
# [10] = compound concentration 2.00E−07
# T1 sequence (Q96SW2 whole entry): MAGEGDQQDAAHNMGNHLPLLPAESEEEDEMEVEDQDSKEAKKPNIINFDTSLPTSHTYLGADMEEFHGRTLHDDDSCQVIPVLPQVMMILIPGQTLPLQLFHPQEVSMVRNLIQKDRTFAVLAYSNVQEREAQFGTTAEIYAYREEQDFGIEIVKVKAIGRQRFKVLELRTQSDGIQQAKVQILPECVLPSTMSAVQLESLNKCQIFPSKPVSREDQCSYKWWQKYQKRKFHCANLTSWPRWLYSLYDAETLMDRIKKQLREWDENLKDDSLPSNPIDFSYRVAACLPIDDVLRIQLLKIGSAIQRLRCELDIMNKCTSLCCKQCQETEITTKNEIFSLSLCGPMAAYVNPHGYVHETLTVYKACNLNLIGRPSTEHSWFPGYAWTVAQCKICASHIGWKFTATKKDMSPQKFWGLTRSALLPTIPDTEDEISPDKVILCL
# T1 sequence (Q9UKS7 whole entry): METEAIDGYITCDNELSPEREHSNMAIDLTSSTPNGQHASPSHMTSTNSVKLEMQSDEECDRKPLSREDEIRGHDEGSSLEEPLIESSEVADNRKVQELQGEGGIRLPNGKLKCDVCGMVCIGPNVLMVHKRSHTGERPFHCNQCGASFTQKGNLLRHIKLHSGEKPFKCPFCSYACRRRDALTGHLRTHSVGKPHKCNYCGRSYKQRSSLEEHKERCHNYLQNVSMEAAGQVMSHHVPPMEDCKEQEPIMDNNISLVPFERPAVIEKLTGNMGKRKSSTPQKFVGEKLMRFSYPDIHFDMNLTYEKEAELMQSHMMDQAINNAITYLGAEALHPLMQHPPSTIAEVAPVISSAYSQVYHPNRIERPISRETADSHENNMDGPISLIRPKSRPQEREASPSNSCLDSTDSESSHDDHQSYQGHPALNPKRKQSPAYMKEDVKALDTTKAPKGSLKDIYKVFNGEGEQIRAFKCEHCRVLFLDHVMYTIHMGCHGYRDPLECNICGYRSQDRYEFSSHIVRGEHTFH
# T2 sequence (Q13422 83-213 isoform Q13422-7 limits assumed): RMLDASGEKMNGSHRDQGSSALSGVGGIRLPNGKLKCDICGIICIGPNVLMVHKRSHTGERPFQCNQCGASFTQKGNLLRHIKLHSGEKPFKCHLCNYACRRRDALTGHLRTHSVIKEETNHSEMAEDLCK
# T2 sequence (Q96SW2 whole entry partner, the tested form may be a part): as the sequence (Q96SW2 whole entry) above
# T2 sequence (Q16531 2-1140 partner limits assumed): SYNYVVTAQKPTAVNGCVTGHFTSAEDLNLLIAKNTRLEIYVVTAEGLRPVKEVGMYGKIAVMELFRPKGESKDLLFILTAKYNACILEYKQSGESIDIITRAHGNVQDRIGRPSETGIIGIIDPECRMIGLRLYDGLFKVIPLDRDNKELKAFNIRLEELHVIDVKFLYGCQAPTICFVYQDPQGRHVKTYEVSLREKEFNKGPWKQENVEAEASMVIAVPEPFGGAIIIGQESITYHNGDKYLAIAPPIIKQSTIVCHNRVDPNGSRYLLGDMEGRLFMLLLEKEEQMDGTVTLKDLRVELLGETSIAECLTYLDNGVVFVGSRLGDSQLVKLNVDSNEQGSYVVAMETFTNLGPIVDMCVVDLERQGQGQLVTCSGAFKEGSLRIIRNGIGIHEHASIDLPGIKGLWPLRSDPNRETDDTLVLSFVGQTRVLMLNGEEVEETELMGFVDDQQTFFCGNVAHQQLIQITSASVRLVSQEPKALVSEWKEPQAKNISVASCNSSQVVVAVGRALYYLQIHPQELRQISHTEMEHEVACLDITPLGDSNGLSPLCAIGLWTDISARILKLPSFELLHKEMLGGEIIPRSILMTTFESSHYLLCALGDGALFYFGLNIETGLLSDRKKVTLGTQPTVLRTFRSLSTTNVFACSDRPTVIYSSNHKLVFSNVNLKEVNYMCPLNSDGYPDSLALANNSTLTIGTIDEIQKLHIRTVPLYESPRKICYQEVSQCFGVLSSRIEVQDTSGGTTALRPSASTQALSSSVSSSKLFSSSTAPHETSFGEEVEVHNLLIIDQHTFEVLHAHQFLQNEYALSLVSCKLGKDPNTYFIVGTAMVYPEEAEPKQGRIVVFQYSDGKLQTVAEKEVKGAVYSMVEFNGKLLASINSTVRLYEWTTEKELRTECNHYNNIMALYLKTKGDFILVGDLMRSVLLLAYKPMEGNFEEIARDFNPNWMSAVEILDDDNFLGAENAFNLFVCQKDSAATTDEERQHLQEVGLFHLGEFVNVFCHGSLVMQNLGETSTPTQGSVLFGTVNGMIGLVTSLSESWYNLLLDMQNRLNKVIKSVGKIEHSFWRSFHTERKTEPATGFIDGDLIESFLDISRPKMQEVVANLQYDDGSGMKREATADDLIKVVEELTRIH
# Chain of GSPT1 (P15170 whole entry, the tested form may be a part): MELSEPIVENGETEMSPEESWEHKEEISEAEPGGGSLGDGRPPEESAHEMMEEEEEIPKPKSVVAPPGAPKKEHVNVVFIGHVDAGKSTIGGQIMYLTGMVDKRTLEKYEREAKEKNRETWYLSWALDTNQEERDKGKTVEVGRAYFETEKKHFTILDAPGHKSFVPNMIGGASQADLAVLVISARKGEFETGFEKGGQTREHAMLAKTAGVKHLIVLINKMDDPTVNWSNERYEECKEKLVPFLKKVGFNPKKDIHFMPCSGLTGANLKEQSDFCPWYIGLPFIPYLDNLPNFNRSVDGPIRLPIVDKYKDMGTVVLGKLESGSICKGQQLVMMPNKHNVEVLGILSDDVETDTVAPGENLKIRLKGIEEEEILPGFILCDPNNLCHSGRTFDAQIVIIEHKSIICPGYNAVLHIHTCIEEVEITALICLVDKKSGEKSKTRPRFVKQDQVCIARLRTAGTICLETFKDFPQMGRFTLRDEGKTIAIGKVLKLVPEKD
# Chain of GSPT1 (Q96SW2 whole entry, the tested form may be a part): as the sequence (Q96SW2 whole entry) above
# Chain of GSPT1 (Q16531 whole entry partner, the tested form may be a part): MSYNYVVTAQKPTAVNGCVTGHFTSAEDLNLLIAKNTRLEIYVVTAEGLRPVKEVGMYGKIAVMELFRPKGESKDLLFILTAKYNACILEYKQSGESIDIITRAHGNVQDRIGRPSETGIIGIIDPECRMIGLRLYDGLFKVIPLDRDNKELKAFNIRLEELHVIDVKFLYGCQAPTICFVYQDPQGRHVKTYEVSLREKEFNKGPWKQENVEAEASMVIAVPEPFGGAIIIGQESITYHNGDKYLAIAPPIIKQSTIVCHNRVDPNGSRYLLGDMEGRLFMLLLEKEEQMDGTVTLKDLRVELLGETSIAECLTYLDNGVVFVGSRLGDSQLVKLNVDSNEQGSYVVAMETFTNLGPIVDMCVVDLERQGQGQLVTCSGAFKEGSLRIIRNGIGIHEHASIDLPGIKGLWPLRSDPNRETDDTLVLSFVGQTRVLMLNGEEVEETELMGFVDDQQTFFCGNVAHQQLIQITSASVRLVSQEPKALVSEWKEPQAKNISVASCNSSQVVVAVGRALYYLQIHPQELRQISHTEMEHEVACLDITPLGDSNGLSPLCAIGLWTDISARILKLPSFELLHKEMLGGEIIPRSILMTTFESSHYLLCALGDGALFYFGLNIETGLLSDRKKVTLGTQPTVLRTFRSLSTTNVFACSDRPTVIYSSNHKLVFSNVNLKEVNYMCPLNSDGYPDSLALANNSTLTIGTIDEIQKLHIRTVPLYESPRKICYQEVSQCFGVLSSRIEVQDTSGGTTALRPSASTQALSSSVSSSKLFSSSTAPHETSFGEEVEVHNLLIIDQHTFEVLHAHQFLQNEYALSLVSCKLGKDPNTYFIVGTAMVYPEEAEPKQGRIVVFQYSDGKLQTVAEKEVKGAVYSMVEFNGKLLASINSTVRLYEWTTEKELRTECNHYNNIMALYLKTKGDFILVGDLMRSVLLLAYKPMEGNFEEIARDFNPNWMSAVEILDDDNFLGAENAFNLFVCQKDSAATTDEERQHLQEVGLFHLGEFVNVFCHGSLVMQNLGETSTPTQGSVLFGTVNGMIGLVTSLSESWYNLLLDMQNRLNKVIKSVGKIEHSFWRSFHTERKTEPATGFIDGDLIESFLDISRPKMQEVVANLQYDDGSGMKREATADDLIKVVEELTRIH
SMILES,"TR-FRET-IKZF2 (Normalized to CC-885) [1, 5]","TR-FRET-IKZF2 (Normalized to CC-885) [1, 6]","TR-FRET-IKZF2 (Normalized to CC-885) [1, 7]","IKZF2 GFP/RFP Relative Abundance [2, 8]","IKZF2 GFP/RFP Relative Abundance [2, 9]","IKZF2 GFP/RFP Relative Abundance [2, 10]","IKZF1 GFP/RFP Relative Abundance [3, 8]","IKZF1 GFP/RFP Relative Abundance [3, 9]","IKZF1 GFP/RFP Relative Abundance [3, 10]","GSPT1 GFP/RFP Relative Abundance [4, 8]","GSPT1 GFP/RFP Relative Abundance [4, 9]","GSPT1 GFP/RFP Relative Abundance [4, 10]",DC50 [2],DC50 [3],DC50 [4],"potency of IKZF2 degradation, in words ([2]; Table 3 summary)"
"O=C1CCC(N2C(=O)C=C(Nc3cccc(NC(=O)Nc4ccc(Cl)c(Cl)c4)c3)C2=O)C(=O)N1 (stereo not shown) [Compound 56, 1-(3,4-dichlorophenyl)-3-(3-((1-(2,6-dioxopiperidin-3-yl)-2,5-dioxo-2,5-dihydro-1H-pyrrol-3-yl)amino)phenyl)urea]",0.383,0.282,0.187,1.092,1.025,0.983,1.190,0.319,0.403,1.572,0.074,0.112,,,,
"Cc1ccc(NC(=O)/C=C/c2cccc(NC3=CC(=O)N(C4CCC(=O)NC4=O)C3=O)c2)cc1Cl (stereo not shown) [Compound 57, (E)-N-(3-chloro-4-methylphenyl)-3-(3-((1-(2,6-dioxopiperidin-3-yl)-2,5-dioxo-2,5-dihydro-1H-pyrrol-3-yl)amino)phenyl)acrylamide]",0.530,0.365,0.282,0.843,0.622,0.656,0.502,0.214,0.305,0.385,0.559,0.779,,,,
"Cc1ccc(NC(=O)NCc2cccc(NC3=CC(=O)N(C4CCC(=O)NC4=O)C3=O)c2)cc1C (stereo not shown) [Compound 58, 1-(3,4-dimethylphenyl)-3-(3-((1-(2,6-dioxopiperidin-3-yl)-2,5-dioxo-2,5-dihydro-1H-pyrrol-3-yl)amino)benzyl)urea]",1.184,1.061,0.927,0.064,0.077,0.122,0.075,0.070,0.074,0.421,0.603,0.594,,,,
"O=C1CCC(N2C(=O)C=C(Nc3cccc(CNC(=O)Nc4ccc(Cl)c(Cl)c4)c3)C2=O)C(=O)N1 (stereo not shown) [Compound 59, 1-(3,4-dichlorophenyl)-3-(3-((1-(2,6-dioxopiperidin-3-yl)-2,5-dioxo-2,5-dihydro-1H-pyrrol-3-yl)amino)benzyl)urea]",1.224,1.165,1.035,0.099,0.072,0.108,0.144,0.097,0.066,0.247,0.734,0.952,,,,
"Cc1ccc(CC(=O)NCc2cccc(NC3=CC(=O)N(C4CCC(=O)NC4=O)C3=O)c2)cc1C (stereo not shown) [Compound 60, 2-(3,4-dimethylphenyl)-N-(3-((1-(2,6-dioxopiperidin-3-yl)-2,5-dioxo-2,5-dihydro-1H-pyrrol-3-yl)amino)benzyl)acetamide]",1.082,0.945,0.833,0.087,0.151,0.185,0.132,0.078,0.091,0.387,0.558,0.528,,,,
"O=C(Cc1ccc(Cl)c(Cl)c1)NCc1cccc(NC2=CC(=O)N(C3CCC(=O)NC3=O)C2=O)c1 (stereo not shown) [Compound 61, 2-(3,4-dichlorophenyl)-N-(3-((1-(2,6-dioxopiperidin-3-yl)-2,5-dioxo-2,5-dihydro-1H-pyrrol-3-yl)amino)benzyl)acetamide]",1.465,1.248,1.201,0.044,0.045,0.050,0.111,0.104,0.103,0.190,0.466,0.737,,,,
"Cc1ccc(NC(=O)NCCc2cccc(NC3=CC(=O)N(C4CCC(=O)NC4=O)C3=O)c2)cc1Cl (stereo not shown) [Compound 62, 1-(3-chloro-4-methylphenyl)-3-(3-((1-(2,6-dioxopiperidin-3-yl)-2,5-dioxo-2,5-dihydro-1H-pyrrol-3-yl)amino)phenethyl)urea]",1.642,1.563,1.483,0.040,0.015,0.036,0.133,0.098,0.109,0.353,1.021,1.208,29 nM,26 nM,> 1000 nM,
"Cc1ccc(NCc2cccc(NC3=CC(=O)N(C4CCC(=O)NC4=O)C3=O)c2)cc1Cl (stereo not shown) [Compound 63, 3-(3-((3-(((3-chloro-4-methylphenyl)amino)methyl)-phenyl)amino)-2,5-dioxo-2,5-dihydro-1H-pyrrol-1-yl)piperidine-2,6-dione]",0.703,0.649,0.625,0.428,0.339,0.470,0.081,0.068,0.086,0.274,0.722,0.844,,,,
"Cc1ccc(NC(=O)N[C@@H](C)c2cccc(NC3=CC(=O)N(C4CCC(=O)NC4=O)C3=O)c2)cc1Cl (stereo partly drawn) [Compound 71, 1-(3-chloro-4-methylphenyl)-3-((1S)-1-(3-((1-(2,6-dioxopiperidin-3-yl)-2,5-dioxo-2,5-dihydro-1H-pyrrol-3-yl)amino)phenyl)ethyl)urea]",1.811,1.675,1.657,0.016,0.018,0.019,0.088,0.086,0.076,,,,1.9 nM,2.1 nM,> 1000 nM,most potent against IKZF2
